Experimental data taken from patent publication US20030191144A1, “Compounds, compositions and methods for modulating beta-amyloid production” (Active Pass Pharmaceuticals, Inc., priority 2001, published 2003).

Experiments:
[1] = tested on: Aβ42 production and/or release from SM-4 cells; test: Aβ42 ELISA of culture media from SM-4 cells; format: cell-based; conditions: 16 hrs, p<0.001
Experimental: Cell Lines and Pharmacological Treatments. 293 EBNA cells (InVitrogen, Carlsbad, Calif.) stably transfected with Swedish mutant β-Amyloid Precursor Protein -695 (SM4 cells) were routinely maintained in DMEM supplemented with sodium pyruvate (1 mM) and 10% fetal bovine serum. Cells were seeded into poly-D-Lysine (SIGMA) coated 6-well plates at a density of 5-7×10^5 cells per well. Subsequently, the cells were rinsed in 1 ml of PBS and treated with 10-500 μM of pirinixic acid in serum-free/phenol red-free DMEM for 16 hours.
(§1) Aβ Detection and Standardization. After the pharmacological treatment, the exposure media was collected and supplemented with 10% sample treatment buffer (40 mM sodium phosphate (pH 7.4), 40 mM triethanolamine, 0.1% Triton X-100, 200 mM NaCl, 2 mM EGTA, 0.1% Sodium azide), and assayed for either Aβ40 or Aβ42 by a calorimetric ELISA as per the manufacturer's protocol (Biosource International Inc, California). The cells were lysed in 0.1% Triton X-100 in PBS supplemented with 5 μM propridium iodide (Molecular Probes, Eugene, Oreg.) and incubated at 37° C. for 30 minutes prior to measuring fluorescence. Aβ40 and Aβ42 were standardized against propridium iodide fluorescence as a measure of total cell number. […]
as §1, with “After” for “Aβ Detection and Standardization. After”
After the pharmacological treatment, the exposure media was collected and supplemented with 10% sample treatment buffer (40 mM sodium phosphate (pH 7.4), 40 mM triethanolamine, 0.1% Triton X-100, 200 mM NaCl, 2 mM EGTA, 0.1% Sodium azide), and assayed for either Aβ40 or Aβ42 by a colorimetric ELISA as per the manufacturer's protocol (Biosource International Inc, California). The cells were lysed in 0.1% Triton X-100 in PBS supplemented with 5 μM propridium iodide (Molecular Probes, Eugene, Oreg.) and incubated at 37° C. for 30 minutes prior to measuring fluorescence. Aβ40 and Aβ42 were standardized against propridium iodide fluorescence as a measure of total cell number.

[2] = tested on: Aβ40 production and/or release from SM-4 cells; test: Aβ40 ELISA of culture media from SM-4 cells; format: cell-based; conditions: 16 hrs
Experimental: Cell Lines and Pharmacological Treatments. 293 EBNA cells (InVitrogen, Carlsbad, Calif.) stably transfected with Swedish mutant β-Amyloid Precursor Protein -695 (SM4 cells) were routinely maintained in DMEM supplemented with sodium pyruvate (1 mM) and 10% fetal bovine serum. Cells were seeded into poly-D-Lysine (SIGMA) coated 6-well plates at a density of 5-7×10^5 cells per well. Subsequently, the cells were rinsed in 1 ml of PBS and treated with 10-500 μM of pirinixic acid in serum-free/phenol red-free DMEM for 16 hours. Aβ Detection and Standardization. After the pharmacological treatment, the exposure media was collected and supplemented with 10% sample treatment buffer (40 mM sodium phosphate (pH 7.4), 40 mM triethanolamine, 0.1% Triton X-100, 200 mM NaCl, 2 mM EGTA, 0.1% Sodium azide), and assayed for either Aβ40 or Aβ42 by a calorimetric ELISA as per the manufacturer's protocol (Biosource International Inc, California). The cells were lysed in 0.1% Triton X-100 in PBS supplemented with 5 μM propridium iodide (Molecular Probes, Eugene, Oreg.) and incubated at 37° C. for 30 minutes prior to measuring fluorescence. Aβ40 and Aβ42 were standardized against propridium iodide fluorescence as a measure of total cell number. 293 EBNA cells (InVitrogen, Carlsbad, Calif.) stably transfected with Swedish mutant β-Amyloid Precursor Protein -695 (SM4 cells) were routinely maintained in DMEM supplemented with sodium pyruvate (1 mM) and 10% fetal bovine serum. […] The cells were lysed in 0.1% Triton X-100 in PBS supplemented with 5 μM propridium iodide (Molecular Probes, Eugene, Oreg.) and incubated at 37° C. for 30 minutes prior to measuring fluorescence. Aβ40 and Aβ42 were standardized against propridium iodide fluorescence as a measure of total cell number. […] The cells were lysed in 0.1% Triton X-100 in PBS supplemented with 5 μM propridium iodide (Molecular Probes, Eugene, Oreg.) and incubated at 37° C. for 30 minutes prior to measuring fluorescence. Aβ40 and Aβ42 were standardized against propridium iodide fluorescence as a measure of total cell number.

With `Cc1cccc(N(C)c2cc(Cl)nc(SCC(=O)O)n2)c1C` [Compound 1] the “inhibition of Aβ42 secretion” value ([1]; 300 μM) was 66% and the “effect on Aβ40” value ([2]; 50-300 μM) was “without altering Aβ40”.

`CCN(c1cc(Cl)nc(SCC(=O)O)n1)c1cccc(C)c1C` [Compound 2, {4-chloro-6-[(2,3-dimethylphenyl)ethylamino]pyrimidin-2-yl-sulfanyl}acetic Acid] was tested, and the “inhibition of Aβ42 secretion” value ([1]; 100 μM) was 80% and the “effect on Aβ40” value ([2]; 5-100 μM) was “without altering Aβ40”.
